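The concentration for 50% growth inhibition is given as GI50. TGI is the concentration that stops growth completely.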
How the values were obtained:
Assay in all cases: NCI-60 cell line screen, 384-well format
A498 renal = system: A498 renal
CCRF-CEM leukemia = system: CCRF-CEM leukemia
KM12 colon = system: KM12 colon
LOX IMVI melanoma = system: LOX IMVI melanoma
M14 melanoma = system: M14 melanoma
OVCAR-5 ovarian = system: OVCAR-5 ovarian
PC-3 prostate = system: PC-3 prostate
RPMI-8226 leukemia = system: RPMI-8226 leukemia
SNB-75 CNS = system: SNB-75 CNS
SW-620 colon = system: SW-620 colon
UACC-257 melanoma = system: UACC-257 melanoma
UACC-62 melanoma = system: UACC-62 melanoma
UO-31 renal = system: UO-31 renal

Cc1cc2c(cc1C)NC1=C(N2)OC(c2c3ccccc3cc3ccccc23)C1=O (configuration not stated)
GI50 (A498 renal): 319 nM
TGI (A498 renal): 924 nM
GI50 (CCRF-CEM leukemia): 194 nM
TGI (CCRF-CEM leukemia): 341 nM
GI50 (KM12 colon): 310 nM
TGI (KM12 colon): 964 nM
GI50 (LOX IMVI melanoma): 361 nM
TGI (LOX IMVI melanoma): 1350 nM
GI50 (M14 melanoma): 290 nM
TGI (M14 melanoma): 653 nM
GI50 (OVCAR-5 ovarian): 1300 nM
TGI (OVCAR-5 ovarian): 5220 nM
GI50 (PC-3 prostate): 422 nM
TGI (PC-3 prostate): 1440 nM
GI50 (RPMI-8226 leukemia): 223 nM
TGI (RPMI-8226 leukemia): 390 nM
GI50 (SNB-75 CNS): 381 nM
TGI (SNB-75 CNS): 1230 nM
GI50 (SW-620 colon): 454 nM
TGI (SW-620 colon): 7470 nM
GI50 (UACC-257 melanoma): 716 nM
TGI (UACC-257 melanoma): 3290 nM
GI50 (UACC-62 melanoma): 329 nM
TGI (UACC-62 melanoma): 1250 nM
GI50 (UO-31 renal): 1940 nM
TGI (UO-31 renal): 9300 nM

O=C(O)c1ccc(CN2CCC(CN[C@@H]3C[C@H]3c3ccccc3)CC2)cc1
GI50 (A498 renal): > 100000 nM
TGI (A498 renal): > 100000 nM
GI50 (CCRF-CEM leukemia): > 100000 nM
TGI (CCRF-CEM leukemia): > 100000 nM
GI50 (KM12 colon): > 100000 nM
TGI (KM12 colon): > 100000 nM
GI50 (LOX IMVI melanoma): > 100000 nM
TGI (LOX IMVI melanoma): > 100000 nM
GI50 (M14 melanoma): > 100000 nM
TGI (M14 melanoma): > 100000 nM
GI50 (OVCAR-5 ovarian): > 100000 nM
TGI (OVCAR-5 ovarian): > 100000 nM
GI50 (PC-3 prostate): > 100000 nM
TGI (PC-3 prostate): > 100000 nM
GI50 (RPMI-8226 leukemia): > 100000 nM
TGI (RPMI-8226 leukemia): > 100000 nM
GI50 (SNB-75 CNS): > 100000 nM
TGI (SNB-75 CNS): > 100000 nM
GI50 (SW-620 colon): > 100000 nM
TGI (SW-620 colon): > 100000 nM
GI50 (UACC-257 melanoma): > 100000 nM
TGI (UACC-257 melanoma): > 100000 nM
GI50 (UACC-62 melanoma): > 100000 nM
TGI (UACC-62 melanoma): > 100000 nM
GI50 (UO-31 renal): > 100000 nM
TGI (UO-31 renal): > 100000 nM
